Drawing on patent publication US9452980B2, “Substituted benzamides” (Hoffmann-La Roche Inc., priority 2009, dated 2016), this text covers Ki for 27 compounds.

Each structure is given as a SMILES string. Structures can show the parent of a compound that is named as a salt.

Chain of mouse TAAR1 (Q923Y8 whole entry): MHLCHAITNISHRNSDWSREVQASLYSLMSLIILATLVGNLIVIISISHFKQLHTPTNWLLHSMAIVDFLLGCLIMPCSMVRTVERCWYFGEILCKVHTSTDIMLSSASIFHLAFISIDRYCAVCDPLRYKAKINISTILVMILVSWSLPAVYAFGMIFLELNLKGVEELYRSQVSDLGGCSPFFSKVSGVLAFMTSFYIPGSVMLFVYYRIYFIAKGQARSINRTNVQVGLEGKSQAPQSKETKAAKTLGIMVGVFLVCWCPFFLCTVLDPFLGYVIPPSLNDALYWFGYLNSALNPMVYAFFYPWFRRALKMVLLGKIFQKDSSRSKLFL
Chain of rat TAAR1 (Q923Y9 whole entry): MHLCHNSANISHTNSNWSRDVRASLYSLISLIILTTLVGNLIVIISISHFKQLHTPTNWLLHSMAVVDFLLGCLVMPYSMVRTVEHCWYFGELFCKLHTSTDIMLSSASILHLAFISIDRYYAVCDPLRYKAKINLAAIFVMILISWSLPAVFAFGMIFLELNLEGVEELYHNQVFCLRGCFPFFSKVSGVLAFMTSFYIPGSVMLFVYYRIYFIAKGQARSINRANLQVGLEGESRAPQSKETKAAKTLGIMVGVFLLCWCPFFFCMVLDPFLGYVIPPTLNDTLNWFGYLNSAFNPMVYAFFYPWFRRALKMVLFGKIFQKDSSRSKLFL

For the first assay, the target named is rat TAAR1 (Rattus norvegicus (Rat), UniProt Q923Y9). Put plainly: Radioligand binding assay on rat TAAR1. The conditions noted are these: rat TAAR1, HEK-293 membranes, second value of cell mouse/rat; read-out: Ki (μM) rat. As for the experimental part:
(§1) For the construction of expression plasmids the coding sequences of human, rat and mouse TAAR1 were amplified from genomic DNA essentially as described by Lindemann et al.. The Expand High Fidelity PCR System (Roche Diagnostics) was used with 1.5 mM Mg^2+ and purified PCR products were cloned into pCR2.1-TOPO cloning vector (Invitrogen) following the instructions of the manufacturer. PCR products were subcloned into the pIRESneo2 vector (BD Clontech, Palo Alto, Calif.), and expression vectors were sequence verified before introduction in cell lines.
(§2) HEK293 cells (ATCC #CRL-1573) were cultured essentially as described by Lindemann et al. (2005). For the generation of stably transfected cell lines HEK293 cells were transfected with the pIRESneo2 expression plasmids containing the TAAR coding sequences (described above) with Lipofectamine 2000 (Invitrogen) according to the instructions of the manufacturer, and 24 hrs post transfection the culture medium was supplemented with 1 mg/ml G418 (Sigma, Buchs, Switzerland). After a culture period of about 10 d clones were isolated, expanded and tested for responsiveness to trace amines (all compounds purchased from Sigma) with the cAMP Biotrak Enzyme immunoassay (EIA) System (Amersham) following the non-acetylation EIA procedure provided by the manufacturer.
Radioligand Binding Assay on Rat TAAR1
(§3) Membrane Preparation and Radioligand Binding.
(§4) HEK-293 cells stably expressing rat TAAR1 were maintained at 37° C. and 5% CO2 in DMEM high glucose medium, containing fetal calf serum (10%, heat inactivated for 30 min at 56° C.), penicillin/streptomycin (1%), and 375 μg/ml geneticin (Gibco). Cells were released from culture flasks using trypsin/EDTA, harvested, washed twice with ice-cold PBS (without Ca^2+ and Mg^2+), pelleted at 1,000 rpm for 5 min at 4° C., frozen and stored at −80° C. Frozen pellets were suspended in 20 ml HEPES-NaOH (20 mM, pH 7.4) containing 10 mM EDTA and homogenized with a Polytron (PT 6000, Kinematica) at 14,000 rpm for 20 s. The homogenate was centrifuged at 48,000×g for 30 min at 4° C. Subsequently, the supernatant was removed and discarded, and the pellet resuspended in 20 ml HEPES-NaOH (20 mM, pH 7.4) containing 0.1 mM EDTA using the Polytron (20 s at 14,000 rpm). This procedure was repeated and the final pellet resuspended in HEPES-NaOH containing 0.1 mM EDTA and homogenized using the Polytron. Typically, aliquots of 2 ml membrane portions were stored at −80° C. With each new membrane batch the dissociation constant (Kd) was determined via a saturation curve. […] Nonspecific binding was defined as the amount of ^3[H]—(S)-4-[(ethyl-phenyl-amino)-methyl]-4,5-dihydro-oxazol-2-ylamine bound in the presence of 10 μM unlabeled ligand. All compounds were tested at a broad range of concentrations (10 pM to 10 μM) in duplicates. […] The 96 deep well plates were incubated for 1 hr at 4° C. Incubations were terminated by rapid filtration through Unifilter-96 plates (Packard Instrument Company) and glass filters GF/C (Perkin Elmer) presoaked for 1 hr in polyethylenimine (0.3%) and washed 3 times with 1 ml of cold binding buffer. After addition of 45 μl of Microscint 40 (PerkinElmer) the Unifilter-96 plate was sealed and after 1 hr the ratioactivity counted using a TopCount Microplate Scintillation Counter (Packard Instrument Company).
Take `O=C(Nc1ccc(C2CCN(c3ccccc3)C2)cc1)c1ccc(Cl)cc1` (racemic) [Example 36, (RS)-4-Chloro-N-[4-(1-phenyl-pyrrolidin-3-yl)-phenyl]-benzamide]: the Ki (as a rule, the equilibrium dissociation constant of an inhibitor or competing ligand from its target) stood at 0.324 µM. Still for that read-out and setting: then `O=C(Nc1ccc(C2CCNC2)cc1)N1CCOCC1` (racemic) [Example 21, (RS)-Morpholine-4-carboxylic acid (4-pyrrolidin-3-yl-phenyl)-amide hydrochloride], with 0.359 µM; and `O=C(Nc1ccc(C2CCCNC2)cn1)c1ccc(Cl)cc1` (racemic) [Example 187, (RS)-4-Chloro-N-(5-(piperidin-3-yl)pyridin-2-yl)benzamide hydrochloride], with 0.0123 µM; and `O=C(Cc1ccccc1)Nc1ccc(C2CCNC2)cc1` (racemic) [Example 12, (RS)-2-Phenyl-N-(4-pyrrolidin-3-yl-phenyl)-acetamide hydrochloride], with 0.29 µM.

Consider `O=C(NCc1ccc([C@H]2CNCCO2)cc1)c1ccc(Cl)cc1` [Example 317, (S)-4-Chloro-N-(4-(morpholin-2-yl)benzyl)benzamide hydrochloride], for which the Ki was found to be 0.0226 µM.

Turning to `O=C(Nc1ccc(C2CNCCO2)cc1)c1ccc(Cl)cc1` (racemic) [Example 71, (RS)-4-Chloro-N-(4-morpholin-2-yl-phenyl)-benzamide hydrochloride], the Ki amounted to 0.0121 µM. For `CC1(c2ccc(NC(=O)c3ccccc3)cc2)CCNC1` (racemic) [Example 41, (RS)—N-[4-(3-Methyl-pyrrolidin-3-yl)-phenyl]-benzamide], the Ki is 2.98 µM.

In the case of `COCc1ccc(C(=O)Nc2ccc(C3CCNC3)cc2)cc1` (racemic) [Example 51, (RS)-4-Methoxymethyl-N-(4-pyrrolidin-3-yl-phenyl)-benzamide hydrochloride], the Ki was determined as 0.0985 µM. `CN(C(=O)Nc1ccc(C2CCNC2)cc1)c1ccccc1` (racemic) [Example 14, (RS)-1-Methyl-1-phenyl-3-(4-pyrrolidin-3-yl-phenyl)-urea]: the inhibition constant Ki was determined as 0.645 µM. With `Cc1cnc(C(=O)Nc2ccc([C@@H]3CCCNC3)cc2)cn1` [Example 247, (S)-5-Methyl-N-(4-(piperidin-3-yl)phenyl)pyrazine-2-carboxamide hydrochloride], the Ki is 0.0677 µM. Turning to `O=C(Nc1ccc(C2CCNC2)cc1)OCCc1ccc(OC(F)(F)F)cc1` (racemic) [Example 125, (RS)-(4-Pyrrolidin-3-yl-phenyl)-carbamic acid 2-(4-trifluoromethoxy-phenyl)-ethyl ester], the Ki stood at 0.0007 µM. On to `O=C(Nc1ccc(C2CNCCO2)cc1)C1CCN(c2ccncn2)CC1` (racemic) [Example 287, (RS)—N-(4-(Morpholin-2-yl)phenyl)-1-(pyrimidin-4-yl)piperidine-4-carboxamide dihydrochloride], for which the Ki worked out at 0.379 µM. Turning to `O=C(NCc1ccccc1)Nc1ccc(C2CCNC2)cc1` (racemic) [Example 9, (RS)-1-Benzyl-3-(4-pyrrolidin-3-yl-phenyl)-urea hydrochloride], the inhibitory constant (Ki) came to 1.11 µM. With `O=C(NCc1ccc([C@H]2CNCCO2)cc1)c1ccc(Cl)nc1` [Example 319, (S)-6-Chloro-N-(4-(morpholin-2-yl)benzyl)nicotinamide hydrochloride], the Ki amounted to 0.0206 µM. Consider `O=C(Nc1ccc(C2CCNC2)cc1)NC1CCCCC1` (racemic) [Example 10, (RS)-1-Cyclohexyl-3-(4-pyrrolidin-3-yl-phenyl)-urea hydrochloride], for which the Ki came out at 0.309 µM.

Still in this assay, the particulars now being: read-out: Ki (μM) rat.
Take `O=C(NCc1ccc([C@H]2CNCCO2)cc1)c1ccc(C(F)(F)F)nc1` [Example 320, (S)—N-(4-(Morpholin-2-yl)benzyl)-6-(trifluoromethyl)nicotinamide hydrochloride]: the inhibition constant (Ki) worked out at 0.0249 µM.

The next assay concerns the target mouse TAAR1 (Mus musculus (Mouse), UniProt Q923Y8). Put plainly: Radioligand binding assay on mouse TAAR1. Particulars: mouse TAAR1, HEK-293 membranes, first value of cell mouse/rat; read-out: Ki (μM) mouse. Here is the method:
as §1, §2
Radioligand Binding Assay on Mouse TAAR1
as §3
as §4, with “expressing mouse” for “expressing rat”
As for `CN1CCOC(c2ccc(NC(=O)c3ccc(Cl)cc3)cc2)C1` (racemic) [Example 80, (RS)-4-Chloro-N-[4-(4-methyl-morpholin-2-yl)-phenyl]-benzamide], the Ki was 0.0035 µM. On to `CC(C(=O)Nc1ccc(C2CCNC2)cc1)c1ccccc1` (racemic) [Example 25, (RS)-2-Phenyl-N—((RS)-4-pyrrolidin-3-yl-phenyl)-propionamide], for which the Ki worked out at 0.32 µM. On the same count and under the same terms, the value for `COc1ccc(C(=O)Nc2ccc(C3CCNC3)cc2)cc1` (racemic) [Example 183, (RS)-4-Methoxy-N-(4-(pyrrolidin-3-yl)phenyl)benzamide hydrochloride] was 0.0526 µM; that for `CCN1CCC(c2ccc(NC(=O)c3ccc(Cl)cc3)cc2)C1` (racemic) [Example 33, (RS)-4-Chloro-N-[4-(1-ethyl-pyrrolidin-3-yl)-phenyl]-benzamide] was 0.0006 µM; that for `O=C(Nc1ccc(COC2CCNC2)cc1)c1ccc(Cl)cc1` (racemic) [Example 145, (RS)-4-Chloro-N-[4-(pyrrolidin-3-yloxymethyl)-phenyl]-benzamide hydrochloride] was 0.0227 µM. Take `C[C@@H](C(=O)Nc1ccc(C2CCNC2)cc1)c1ccccc1` (mixture of isomers) [Example 29, (R)-2-Phenyl-N—((RS)-4-pyrrolidin-3-yl-phenyl)-propionamide]: the inhibition constant (Ki) turned out to be 0.102 µM. Take `COc1cccc(C(C)C(=O)Nc2ccc(C3CCNC3)cc2)c1` (racemic) [Example 67, (RS)-2-(3-Methoxy-phenyl)-N—((RS)-4-pyrrolidin-3-yl-phenyl)-propionamide]: the Ki is 0.499 µM. As for `O=C(Nc1ccc(C2CCNC2)cc1)N1CCCCC1` (racemic) [Example 28, (RS)-Piperidine-1-carboxylic acid (4-pyrrolidin-3-yl-phenyl)-amide], the Ki is 0.434 µM. Still for that read-out and setting: then `C[C@H](C(=O)Nc1ccc(C2CCNC2)cc1)c1ccccc1` (mixture of isomers) [Example 30, (S)-2-Phenyl-N—((RS)-4-pyrrolidin-3-yl-phenyl)-propionamide], with 0.053 µM; and `O=C(Nc1ccc(C2CNCCO2)cc1)c1ccc(Cl)cn1` (racemic) [Example 148, (RS)-5-Chloro-pyridine-2-carboxylic acid (4-morpholin-2-yl-phenyl)-amide hydrochloride], with 0.0393 µM; and `O=C(Nc1ccc(C2CCCNC2)cc1)c1ccccc1` (racemic) [Example 184, (RS)—N-(4-(piperidin-3-yl)phenyl)benzamide hydrochloride], with 0.153 µM.
